Values of other authors in patent US20230406931A1, “Adjuvant Durvalumab in Combination with Chemotherapy for Treatment of Cancer” (ASTRAZENECA AB, priority 2020, published 2023).

Tests used:
[1] = durvalumab versus placebo following definitive concurrent chemoradiation, PACIFIC study; cited from earlier work
PD-L1 = PD-L1 (Homo sapiens, UniProt Q9NZQ7); settings: in vitro; cited from earlier work
xenograft tumor = settings: xenograft model, via a T-cell dependent mechanism; cited from earlier work

Sequence of PD-L1 (Q9NZQ7 19-290): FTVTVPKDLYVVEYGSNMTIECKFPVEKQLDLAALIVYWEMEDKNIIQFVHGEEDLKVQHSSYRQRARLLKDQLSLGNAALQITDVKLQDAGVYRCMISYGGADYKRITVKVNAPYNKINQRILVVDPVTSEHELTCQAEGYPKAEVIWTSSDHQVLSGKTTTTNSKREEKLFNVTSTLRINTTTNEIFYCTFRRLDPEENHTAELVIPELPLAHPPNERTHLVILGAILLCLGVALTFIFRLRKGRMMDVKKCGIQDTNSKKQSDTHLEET

durvalumab: antibody that selectively binds PD-L1 and blocks the binding of PD-L1 to the PD-1 and CD80 receptors
overall survival (OS) [1]: improved
progression-free survival (PFS) [1]: improved
relief of PD-L1-mediated suppression of human T-cell activation (PD-L1): relieve PD-L1-mediated suppression of human T-cell activation
tumor growth (xenograft tumor): inhibits tumor growth
